Tests used:
Test in all cases: relative viability (nuclei count vs DMSO), 5 days (fraction); higher = more cells survive
Alpelisib + Lapatinib = compound: Cc1nc(NC(=O)N2CCC[C@H]2C(N)=O)sc1-c1ccnc(C(C)(C)C(F)(F)F)c1 [Alpelisib] + CS(=O)(=O)CCNCc1ccc(-c2ccc3ncnc(Nc4ccc(OCc5cccc(F)c5)c(Cl)c4)c3c2)o1 [Lapatinib] (partner 2 µM)
How it was run: (§1)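 Lung cancer cell lines in 1536-well plates got either a single drug or a fixed anchor-drug dose together with five library-drug doses (not always all listed) in √10 steps, by pin tool, on the day after seeding. Nuclei were counted after 5 days, and relative viability is the treated-to-vehicle ratio of nuclei counts. Values are medians of duplicate plates.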

Alpelisib + Crizotinib = compound: Cc1nc(NC(=O)N2CCC[C@H]2C(N)=O)sc1-c1ccnc(C(C)(C)C(F)(F)F)c1 [Alpelisib] + C[C@@H](Oc1cc(-c2cnn(C3CCNCC3)c2)cnc1N)c1c(Cl)ccc(F)c1Cl [Crizotinib] (partner 1 µM)
How it was run: as §1

Alpelisib + Olaparib = compound: Cc1nc(NC(=O)N2CCC[C@H]2C(N)=O)sc1-c1ccnc(C(C)(C)C(F)(F)F)c1 [Alpelisib] + O=C(c1cc(Cc2n[nH]c(=O)c3ccccc23)ccc1F)N1CCN(C(=O)C2CC2)CC1 [Olaparib] (partner 8 µM)
How it was run: as §1

OSI-027 + Dasatinib = compound: COc1cccc2cc(-c3nc([C@H]4CC[C@H](C(=O)O)CC4)n4ncnc(N)c34)[nH]c12 [OSI-027] + Cc1nc(Nc2ncc(C(=O)Nc3c(C)cccc3Cl)s2)cc(N2CCN(CCO)CC2)n1 [Dasatinib] (partner 0.075 µM)
How it was run: as §1

Cell Line | relative viability (Alpelisib + Lapatinib; first compound 0.04 µM) | relative viability (Alpelisib + Lapatinib; first compound 0.1265 µM) | relative viability (Alpelisib + Lapatinib; first compound 0.4 µM) | relative viability (Alpelisib + Lapatinib; first compound 1.265 µM) | relative viability (Alpelisib + Lapatinib; first compound 4 µM) | relative viability (Alpelisib + Crizotinib; first compound 0.04 µM) | relative viability (Alpelisib + Crizotinib; first compound 0.1265 µM) | relative viability (Alpelisib + Crizotinib; first compound 0.4 µM) | relative viability (Alpelisib + Crizotinib; first compound 1.265 µM) | relative viability (Alpelisib + Crizotinib; first compound 4 µM) | relative viability (Alpelisib + Olaparib; first compound 0.04 µM) | relative viability (Alpelisib + Olaparib; first compound 0.1265 µM) | relative viability (Alpelisib + Olaparib; first compound 0.4 µM) | relative viability (Alpelisib + Olaparib; first compound 1.265 µM) | relative viability (Alpelisib + Olaparib; first compound 4 µM) | relative viability (OSI-027 + Dasatinib; first compound 0.01 µM) | relative viability (OSI-027 + Dasatinib; first compound 0.03162 µM) | relative viability (OSI-027 + Dasatinib; first compound 0.1 µM) | relative viability (OSI-027 + Dasatinib; first compound 0.3162 µM) | relative viability (OSI-027 + Dasatinib; first compound 1 µM)
Calu-6 | 1.1 | 1.09 | 1.12 | 0.996 | 0.952 | 0.772 | 0.691 | 0.911 | 0.753 | 0.559 | 0.602 | 0.529 | 0.646 | 0.615 | 0.577 | – | – | – | – | –
ChaGo-K-1 | – | – | – | – | – | 1.13 | – | 1.15 | 0.988 | 0.841 | 0.435 | 0.42 | 0.426 | 0.417 | 0.342 | 0.515 | 0.618 | 0.5 | 0.549 | 0.474
EBC-1 | 0.21 | 0.184 | 0.211 | 0.238 | 0.232 | 0.229 | 0.177 | 0.204 | 0.199 | 0.177 | 0.682 | 0.74 | 0.655 | 0.636 | 0.587 | – | – | – | – | –
EKVX | 0.195 | 0.34 | 0.184 | 0.174 | 0.175 | 0.956 | 0.918 | 1.06 | 0.749 | 0.619 | 0.856 | 0.897 | 1.1 | 0.753 | 0.512 | 0.516 | 0.472 | 0.515 | 0.429 | 0.316
EMC-BAC-2 | 0.826 | 0.844 | 0.84 | 0.68 | 0.628 | 0.752 | 0.778 | 0.753 | 0.608 | 0.496 | 0.492 | 0.382 | 0.498 | 0.347 | 0.318 | 0.296 | 0.311 | 0.308 | 0.249 | 0.225
EPLC-272H | 0.859 | 0.842 | 0.805 | 0.7 | 0.525 | 0.75 | 0.788 | 1.09 | 0.713 | 0.653 | 0.936 | 0.838 | 0.75 | 0.393 | 0.485 | 0.336 | 0.314 | 0.36 | 0.268 | 0.102
H3255 | 0.242 | 0.215 | 0.259 | 0.203 | 0.197 | 0.85 | 1.05 | 1.16 | 0.631 | 0.675 | 0.571 | 0.59 | 0.651 | 0.538 | 0.474 | 0.291 | 0.377 | 0.388 | 0.292 | 0.217
HARA | 0.747 | 0.699 | 0.46 | 0.305 | 0.209 | 1.04 | 1.03 | 1.15 | 0.845 | 0.622 | 0.696 | 0.64 | 0.742 | 0.453 | 0.452 | 0.227 | 0.247 | 0.25 | 0.253 | 0.209
HCC-15 | 0.897 | 0.858 | 0.94 | 0.823 | 0.725 | 0.814 | 0.798 | 0.901 | 0.668 | 0.651 | 0.685 | 0.765 | 0.738 | 0.616 | 0.509 | 0.551 | 0.656 | 0.624 | 0.486 | 0.366

From the supplement of paper PMC10307832
